# According to US10501780B2, “Compositions for in situ nucleic acid analysis” (APPLIED BIOSYSTEMS, LLC, priority 2007, dated 2019):
# *: point of attachment. MeOSuc = COC(=O)CCC(=O)*; CH2Cl = ClC*
# B1: N-acetyl-Eglin C: Catalog No. E7888, Sigma-Aldrich; inhibitor of chymotrypsin, subtilisin, leukocyte elastase and cathepsin G (protein)
# chain: Ac-TEFGSELKSFPEVVGKTVDQAREYFTLHYPQYDVYFLPEGSPVTLDLRYNRVRVFYNPGTNVVNHVPHVG
# Tests used:
# proteinase K (PK) = proteinase K (PK) (Parengyodontium album, UniProt P06873); format: biochemical; details: PK 600 ug/ml, increasing inhibitor, 3 min; RNaseALERT fluorescence at 520 nm
# Sequence of proteinase K (PK) (P06873 106-384): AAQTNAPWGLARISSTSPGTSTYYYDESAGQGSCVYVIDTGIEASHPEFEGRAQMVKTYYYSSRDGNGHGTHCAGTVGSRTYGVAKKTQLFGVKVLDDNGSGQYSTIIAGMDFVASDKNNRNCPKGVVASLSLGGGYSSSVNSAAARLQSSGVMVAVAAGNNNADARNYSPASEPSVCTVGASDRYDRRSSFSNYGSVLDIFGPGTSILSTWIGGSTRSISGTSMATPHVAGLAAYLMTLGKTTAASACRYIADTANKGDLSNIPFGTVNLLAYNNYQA
# Method: PK (600 ug/ml) was mixed with increasing amounts of test inhibitor and allowed to react for 3 min at room temperature. RNase A was added and the mixture was incubated for 10 min. The RNase A was mixed with RNaseALERT™ substrate (AMBION®, Catalog No. AM1964) and incubated for 10 min. The fluorescence of the RNaseALERT™ substrate was measured at 520 nm.
# DNase I [1] = details: 1 mM EDTA in Buffer A; 0.2 U DNase I
# Method: The 590 nm fluorescence intensity with 544 nm excitation was measured with time.
# DNase I [2] = system: DNase I
# Method: The ability of EGTA to inhibit DNase I activity and the limiting amount of EGTA that could be used in RT-PCR was determined. EGTA (88 mM; final conc. of 8 mM) was added to the stop solution for DNase I inactivation. The pH of the stop solution was 8.0 for AAPV (SEQ ID NO:1) inactivation of proteinase K. Tris-base with HCl as needed for pH adjustment (11 mM; final conc of 1 mM) was used for buffering the solution.
# [3] = Compatibility of protease inhibitors with two-step RT-PCR; format: biochemical
# Source text: The samples were reverse transcribed using a Reverse Transcriptase Kit (Applied Biosystems Catalog No. 4368813) and the resulting cDNA was subjected to real time PCR with the TAQMAN® Universal PCR Master Mix (Applied Biosystems Catalog No. 4304437).
# [4] = Compatibility of protease inhibitors with 1-step RT-PCR; details: one-step reaction
# HeLa cells = test: Lysis efficacy of surfactants by propidium iodide staining; format: cell-based, H. sapiens; details: PI staining, 10^5 HeLa cells; for effectiveness at lysing cells: concentrations up to 3%
# Method: Lysis efficacies of seven surfactants were tested by PI staining (DNA fluorochrome propidium iodide stain for viability, 1 mg/ml) of 10^5 HeLa cells treated with 0.01% to 5% surfactant. The buffer was 10 mM Tris pH 7.5, 2.5 mM MgCl2, 0.5 mM CaCl2.
# proteinase K = proteinase K (Parengyodontium album, UniProt P06873); test: AAPV concentration for proteinase K inhibition in lysis solution (RNase A, Bioanalyzer protein chip); format: biochemical; details: PK 100 ug/ml
# Sequence of proteinase K (P06873 106-384): as above
# Method: For one-step RT-PCR, AAPV (SEQ ID NO:1) is effective. To determine the concentration of AAPV (SEQ ID NO:1) for inhibition of proteinase K in the lysis solution, 50 uL lysis solution was mixed with 5 uL of stop solution with varying amounts of AAPV (SEQ ID NO:1) (11 mM Tris, 44 mM EGTA, […] AAPV (SEQ ID NO:1)) and incubated for 10 min. RNase A (15 ug) was added to each sample and the samples were held for 10 min at room temperature. The reaction mixture was heated for 30 min at 95° C. and analyzed using a Protein 50 Bioanalyzer chip (2100 Bioanalyzer, Agilent, Santa Clara, Calif.). The Bioanalyzer protein gel data are provided by FIG. 7 in which the lower marker is at about 3.5 kDa; the next higher prominent bands are system peaks at about 4.0-4.5 kDa; intact RNase A is at about 20 kDa; and proteinase K is at about 35 kDa. Lanes are labeled as follows: (L) Ladder, (1) RNase Only, (2) PK Only, (3)-(8) AAPV (SEQ ID NO:1) at 1 mM (3), 0.75 mM (4), 0.5 mM (5), 0.25 mM (6), 0.125 mM (7), and 0 mM (8).
# [5] = molecular target: T1, AMPLITAQ GOLD® DNA polymerase (Thermus aquaticus, UniProt P19821); test: Effect of surfactants on qPCR (TAQMAN Universal PCR Master Mix, PPIA assay); format: biochemical; details: even at 1% (0.1% final in PCR)
# T1 construct: purchased Applied Biosystems 4304437
# T1 sequence (P19821 whole entry): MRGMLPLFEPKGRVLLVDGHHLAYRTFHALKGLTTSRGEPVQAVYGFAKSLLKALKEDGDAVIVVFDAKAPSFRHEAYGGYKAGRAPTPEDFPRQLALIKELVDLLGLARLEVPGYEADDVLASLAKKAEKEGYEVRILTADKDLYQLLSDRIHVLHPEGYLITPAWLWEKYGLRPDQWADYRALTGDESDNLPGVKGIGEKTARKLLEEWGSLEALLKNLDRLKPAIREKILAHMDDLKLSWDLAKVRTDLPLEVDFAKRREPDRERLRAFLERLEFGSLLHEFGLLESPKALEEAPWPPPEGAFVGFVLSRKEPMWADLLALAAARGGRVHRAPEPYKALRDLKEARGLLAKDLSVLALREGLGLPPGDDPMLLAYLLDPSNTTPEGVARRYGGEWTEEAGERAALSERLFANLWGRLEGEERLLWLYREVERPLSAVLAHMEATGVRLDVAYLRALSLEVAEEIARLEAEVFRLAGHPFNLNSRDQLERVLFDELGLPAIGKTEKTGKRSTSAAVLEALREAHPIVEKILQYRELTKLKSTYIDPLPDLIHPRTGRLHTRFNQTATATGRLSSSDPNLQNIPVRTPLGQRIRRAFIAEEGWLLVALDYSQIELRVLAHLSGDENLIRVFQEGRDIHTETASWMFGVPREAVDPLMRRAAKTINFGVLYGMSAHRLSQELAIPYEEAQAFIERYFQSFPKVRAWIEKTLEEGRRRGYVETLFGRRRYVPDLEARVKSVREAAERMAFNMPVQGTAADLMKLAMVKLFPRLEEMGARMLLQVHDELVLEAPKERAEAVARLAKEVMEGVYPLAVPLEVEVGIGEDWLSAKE
# Method: The effects of surfactants on PCR reactions were then studied. qPCR (20 uL) reactions with 4 ng Human Universal reference liver cDNA (Catalog No. 780622; […]®, La Jolla, Calif.) were performed by adding 2 uL of surfactant resuspended in 10 mM Tris pH 7.5 at concentrations of 0.0%, 0.01%, 0.03%, 0.1%, 0.3%, and 1%. qPCR reactions were carried out using the TAQMAN® Universal PCR Master Mix (Applied Biosystems Catalog No. 4304437), and qRT-PCR reactions were carried out using the TAQMAN® One-Step RT-PCR Master Mix (Applied Biosystems Catalog No. 4309169). TAQMAN® gene expression assays were used to determine expressions levels of genes PPIA (peptidylprolyl isomerase A (cyclophilin A)) and B2M (β-2-microglobulin).
# ROX™ background fluorescence was not affected.
# [6] = concentrations up to 2 mM in the stopped mixture (up to 400 uM in an RT reaction)
molecule,measurement,setting,value
"NCCc1ccc(S(=O)(=O)F)cc1 [AEBSF, 4-(2-aminoethyl) benzenesulfonyl fluoride]",inhibition of PK at room temperature,proteinase K (PK),did not show inhibition
"O=C(O)CN(CCN(CC(=O)O)CC(=O)O)CC(=O)O [EDTA, ethylenediamine tetraacetic acid]",effect on DNase I activity (DNaseALERT substrate fluorescence),DNase I [1],inhibitory effect
"O=C(O)CN(CCOCCOCCN(CC(=O)O)CC(=O)O)CC(=O)O [EGTA, ethylene glycol tetraacetic acid]",concentration inhibiting DNase I,DNase I [2],≥ 4 mM
"O=S(=O)(F)Cc1ccccc1 [PMSF, phenylmethylsulfonylfluoride]",RT-PCR inhibition (two-step),[3]; [6],Minimal RT-PCR inhibition
same,compatibility with 1-step RT-PCR,[4],showed RT-PCR inhibition
N=C(N)c1ccccc1 [benzamidine],inhibition of PK at room temperature,proteinase K (PK),did not show inhibition
"CC(=O)N[C@@H](CC(C)C)C(=O)N[C@@H](CC(C)C)C(=O)N[C@H](C=O)CCCNC(=N)N [leupeptin, Ac-Leu-Leu-Arg-CHO]",inhibition of PK at room temperature,proteinase K (PK),capable of inhibiting PK
N-tosyl-L-lysine-chloromethyl ketone [TLCK],inhibition of PK at room temperature,proteinase K (PK),did not show inhibition
TWEEN™ 20,effectiveness at lysing cells,HeLa cells,not effective
TWEEN™ 40,effectiveness at lysing cells,HeLa cells,not effective
TWEEN™ 80,effectiveness at lysing cells,HeLa cells,not effective
aprotinin,inhibition of PK at room temperature,proteinase K (PK),capable of inhibiting PK
same,RT-PCR inhibition (two-step),[3]; all concentrations tested,inhibitory
same,compatibility with 1-step RT-PCR,[4],showed RT-PCR inhibition
methoxysuccinyl-Ala-Ala-Pro-Ala-chloromethyl ketone (MeOSuc-AAPA-CH2Cl),inhibition of PK at room temperature,proteinase K (PK),did not show inhibition
methoxysuccinyl-Ala-Ala-Pro-Val-chloromethyl ketone (MeOSuc-AAPV-CH2Cl),inhibition of PK at room temperature,proteinase K (PK),capable of inhibiting PK
same,RT-PCR inhibition (two-step),[3]; [6],Minimal RT-PCR inhibition
same,lowest concentration inhibiting PK,proteinase K,≥ 0.25 mM
same,lowest concentration inhibiting PK,proteinase K; listed as Methoxysuccinyl-AAPV-chloromethyl ketone,≥ 0.75 mM
same,compatibility with 1-step RT-PCR,[4],compatible
octylphenol ethoxylate having an average of 7.5 ethoxylate groups [TRITON X-114™],effect on qPCR (Ct),[5],no effect
octylphenol ethoxylate having an average of 9.5 ethoxylate groups [TRITON X-100™],concentrations effective for lysis,"HeLa cells; 0.01% to 5% surfactant tested, 1% TRITON X-100 as full lysis control",≥ 0.05%
B1,inhibition of PK at room temperature,proteinase K (PK),did not show inhibition
